In paper PMC10870435, “A novel complement C3 inhibitor CP40-KK protects against experimental pulmonary arterial hypertension via an inflammasome NLRP3 associated pathway” (Journal of Translational Medicine, 2024):

Assays:
RAW264.7 cells = assay: RAW264.7 macrophages, western blot of NLRP3 pathway after C3a; format: cell-based; details: n = 3 per group
Method: RAW264.7 cells were provided by the Hubei Key Laboratory of Genetics and Molecular Mechanism of Cardiologic Disorders, Huazhong University of Science and Technology (China), and cultured in DMEM containing 10% fetal bovine serum at 37 ℃ and 5% CO2. RAW264.7 cells were incubated with 50 nM C3a for 12 h and then were washed twice with PBS. The cells were incubated with serum-free DMEM for 12 h and the supernatants were collected. After pretreatment with 100 ng/ml of IL-1RA for 1 h, we added the supernatants from the control or C3a group to PASMCs respectively for 24 h.
Proteins were collected from the fresh frozen-rat lung tissues using RIPA lysis buffer. Protein concentration was quantified using a BCA reagent. Equal amounts of protein were electrophoretically separated on 10% SDS polyacrylamide gel, transferred to PVDF membranes, and probed with desired primary antibodies overnight at 4 °C. Membranes were then washed with TBST and incubated with anti-mouse IgG (1:5000) or anti-rabbit IgG (1:5000) horseradish peroxidase conjugated antibodies as indicated. Blots were developed with the enhanced chemiluminescence system. To compare and quantify levels of proteins, the density of each band was measured using Image J software. Equal loading for total cell or tissue lysates was determined by β-Actin western blot.

[1] = tested on: MCT-induced rat PAH model; assay: MCT-induced rat PAH model: hemodynamics, RV hypertrophy, vessel morphology; format: in vivo; details: single i.p. injection 40 mg/kg; control group 28.00 ± 3.55 mmHg; mean ± SEM; n = 6 per group; SEM
Method: In the current study, two animal experiments were conducted successively. 30 rats were randomly divided into two groups (control group and MCT group, n = 15 per group) in the first experiment. MCT group rats received a single intraperitoneally injection of MCT (40 mg/kg) on day 1 to induce PAH while control group rats received an equivoluminal saline injection intraperitoneally. For the second animal experiment, the rats were assigned into four groups (control group, MCT group, CP40-KK group, and MCT + CP40-KK group, n = 15 per group). The control group was given the same volume of saline subcutaneously while the CP40-KK group rats only received CP40-KK (2 mg/kg) by subcutaneous injection from day 15 to day 28 continuously. The rats in the MCT group and MCT + CP40-KK group were received a single intraperitoneally injection of MCT (40 mg/kg) on day 1 and subcutaneously injected with either an equal volume of saline or CP40-KK (2 mg/kg) at day 15 to day 28 continuously. The dose selection of MCT and CP40-KK in our study was established based on previous studies.
Four weeks after the MCT injection, the experimental rats were weighed and anesthetized by intraperitoneal injecting pentobarbital sodium (40 mg/kg). After being anesthetized, rats were fixed in the supine position. A 3F polyethylene catheter filling with heparin was introduced into the right ventricle (RV) through the right jugular vein and the right atrium. Right ventricle systolic pressure (RVSP) was assessed by a pressure transducer and PowerLab system (AD Instruments, Australia). Pressure recordings were measured over a 2 min period and analyzed with Powerlab Pro Software (AD Instruments, Australia). After the hemodynamic study, the rats were euthanized by an overdose of anesthesia, and their lungs and hearts were dissected for further evaluation. The dry weights of the RV and left ventricle (LV) + septum were measured to calculate the RV/(LV + S) ratio and the RV / body weight (RV/BW). The left lung was fixed in 4% paraformaldehyde, and the right lung was snap-frozen in liquid nitrogen and stored at − 80 °C for further analysis.
Fixed lung samples were further fixed in 4% buffered paraformaldehyde for 24 h, embedded in paraffin, and processed for sectioning at 5 μm thick. Hematoxylin and eosin (H&E) staining were performed on paraffin-fixed lung tissue slides. The percent medial wall thickness (WT%) and percent medial wall area (WA%) were used to assess the extent of pulmonary vascular remodeling. WT% = (external diameter − internal diameter)/(external diameter) × 100%; WA% = (external area − internal area)/external area × 100%. All data were obtained and analyzed in a blinded manner.

C3 = details: cited from earlier work
Excerpt: The selective C3 inhibitor CP40 has been found therapeutically effective in various diseases, but has yet not been tested in the PAH model. In the current study, we applied the newly identified CP40 analog, CP40-KK, with two more lysine attached to the C terminus, in the MCT-induced PAH rat model.

[2] = tested on: primary rat pulmonary arterial smooth muscle cells (PASMCs); assay: PASMC proliferation with macrophage supernatant (EdU assay, western blot); format: cell-based; details: 24 h, n = 3 per group
Method: PASMCs were isolated from rat distal pulmonary arteries and then cultured in Dulbecco’s modified Eagle’s medium (DMEM) containing 20% fetal bovine serum as previously described.
Cells seeded in the 24-well plate were labeled with 10 μmol/L of EdU (Meilun, Dalian, China) for 2 h at 37 ℃. Subsequently, cells were fixed in 4% of paraformaldehyde for 20 min and incubated in phosphate-buffered saline (PBS) containing 0.5% of Triton- X100 for 15 min. After being washed three times with PBS, 150 μL of dying solution was applied per well for 30 min and nuclei staining with Hoechst 33,342 for 10 min away from light. The proliferating cells were labeled with green fluorescence, with a maximum excitation wavelength of 491 nm and a maximum emission wavelength of 518 nm for 488-Azide. The proliferative rate = EdU-positive cells/Hoechst-positive cells.
RAW264.7 cells were provided by the Hubei Key Laboratory of Genetics and Molecular Mechanism of Cardiologic Disorders, Huazhong University of Science and Technology (China), and cultured in DMEM containing 10% fetal bovine serum at 37 ℃ and 5% CO2. RAW264.7 cells were incubated with 50 nM C3a for 12 h and then were washed twice with PBS. The cells were incubated with serum-free DMEM for 12 h and the supernatants were collected. […]

## NC(N)=NCCC[C@H](NC(=O)COCC(c1ccccc1)c1ccccc1)C(=O)O.O=C(O)C(F)(F)F [C3aRa, SB290157 trifluoroacetate, reference compound]
RAW264.7 cells; RAW264.7 treated with C3a (50 nM), 1 mM C3aRa
  cellular levels of NLRP3, cleaved-caspase-1, cleaved-IL1β and IL18: reduced

## C[C@H]1C(=O)O[C@@H]2CCN3CC=C(COC(=O)[C@](C)(O)[C@]1(C)O)[C@H]23 [MCT, Monocrotaline, reference compound]
[1]
  RVSP after 4 weeks of MCT treatment: 63.03 ± 4.19 mmHg

## CC[C@H](C)[C@H](N)C(=O)N[C@H]1CSSC[C@@H](C(=O)N[C@H](C(N)=O)[C@@H](C)O)NC(=O)[C@H](CCCNC(=N)N)NC(=O)[C@H](Cc2c[nH]cn2)NC(=O)[C@H](Cc2c[nH]cn2)NC(=O)CNC(=O)[C@H](Cc2c[nH]c3ccccc23)NC(=O)[C@H](CC(=O)O)NC(=O)[C@H](CCC(N)=O)NC(=O)[C@H](C(C)C)NC(=O)[C@H](C(C)C)NC1=O [compstatin]
C3
  species specificity of C3 binding: can bind only primates but not rodent C3

## C3a: complement anaphylatoxin C3a protein used at 50 nM to stimulate macrophages
RAW264.7 cells; RAW264.7, C3a 50 nM
  cleaved-IL1β production by macrophages: stimulated macrophages to produce cleaved-IL1β

## IL-1RA: IL-1RA protein reagent (MedChemExpress HY-P72566), 100 ng/ml pretreatment of PASMCs
[2]; C3a-supernatant + IL-1RA vs C3a-supernatant + PBS, western blot
  PCNA and Cyclin D1 expression in PASMCs: decreased
[2]; C3a-supernatant, 100 ng/ml IL-1RA pretreatment 1 h
  number of EdU-positive PASMCs increased by macrophage-conditioned media: reversed
